Data from US10538567B2, “Compounds as peptidic trigonal GLP1/glucagon/GIP receptor agonists” (priority 2016, dated 2020).
Numbered stars: 1 amine (or outer) side, 2 acyl side, 3 side chain; on linkers, the order of the positions; unused ones are H or OH. Square brackets hold non-standard residues; d marks the D form. Side chains are listed from the residue outwards. Peptide text beside a SMILES is read from it. * marks the point of attachment. γGlu = O=C(O)[C@H](CCC(=O)[*:2])N[*:1]; Palmitoyl = CCCCCCCCCCCCCCCC(=O)*; Aib = CC(C)(N)C(=O)O

Columns and labels:
[1] = tested on: male ApoE KO mice; assay: Anti-atherosclerotic activity in ApoE KO mice, 16 weeks minipump infusion; assay type: in vivo; details: 150 μg/kg/day
Excerpt: The apolipoprotein E (ApoE) knockout (KO) mouse model is widely used to investigate atherosclerosis. These mice spontaneously develop atherosclerotic lesions that are morphologically similar to those observed in humans (Meir & Leitersdorf 2004, Arterioscler Thromb Vasc Biol 24: 1006-1014, Rosenfeld et al. 2000, Arterioscler Thromb Vasc Biol 20: 2587-2592).
Male ApoE KO mice (B.129P2-apoetm1Unc/J) were randomly allocated to control or treatment groups (N=15 per group); wild-type mice (C57BL6/J) received vehicle treatment and acted as a second, healthy control.
ApoE KO and wild-type mice received constant 16 weeks infusion using subcutaneous osmotic minipumps (ALZET™) filled with either vehicle (sterile acetate buffer, pH 4.5), Peptides SEQ ID NO. 6 & SEQ ID NO. 11 (150 μg/kg/day) or with Liraglutide (600 μg/kg/day). Body weight and food intake was monitored throughout the study on a weekly basis.
Blood samples for blood lipid analysis were drawn before treatment and at weeks 7 and 16 to analyze total cholesterol, low density lipoprotein (LDL) cholesterol and high density lipoprotein (HDL) cholesterol (not shown).
The aorta was dissected and aortic atherosclerotic plaque formation was measured as absolute and relative plaque area (% oilred stained area of total aortic surface area) using quantitative and automated image analysis.

[2] = molecular target: T1, human GIP receptor (Homo sapiens, UniProt P48546); assay: cAMP response (HTRF) of HEK-293 cells stably expressing human GIP receptor; assay type: cell-based; details: Table 8; read-out: EC50 hGIP R
T1 construct: expressed in transfected cells; host or cells: HEK-293
T1 sequence (P48546 22-466): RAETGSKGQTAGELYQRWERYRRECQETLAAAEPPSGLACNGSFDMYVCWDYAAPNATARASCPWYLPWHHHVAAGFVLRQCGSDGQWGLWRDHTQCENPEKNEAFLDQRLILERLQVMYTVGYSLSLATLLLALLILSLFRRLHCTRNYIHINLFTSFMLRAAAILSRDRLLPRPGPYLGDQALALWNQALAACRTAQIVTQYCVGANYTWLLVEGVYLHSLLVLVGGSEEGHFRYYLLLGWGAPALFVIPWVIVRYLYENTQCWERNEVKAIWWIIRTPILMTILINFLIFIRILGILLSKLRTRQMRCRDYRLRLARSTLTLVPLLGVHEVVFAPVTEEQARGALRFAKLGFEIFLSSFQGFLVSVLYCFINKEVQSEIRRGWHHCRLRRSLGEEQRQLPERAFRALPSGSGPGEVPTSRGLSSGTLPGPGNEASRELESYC
Protocol: Agonism of compounds for the receptors was determined by functional assays measuring cAMP response of HEK-293 cell lines stably expressing human GLP-1, GIP or glucagon receptor.
cAMP content of cells was determined using a kit from Cisbio Corp. (cat. no. 62AM4PEJ) based on HTRF (Homogenous Time Resolved Fluorescence). For preparation, cells were split into T175 culture flasks and grown overnight to near confluency in medium (DMEM/10% FBS). Medium was then removed and cells washed with PBS lacking calcium and magnesium, followed by proteinase treatment with accutase (Sigma-Aldrich cat. no. A6964). Detached cells were washed and resuspended in assay buffer (1×HBSS; 20 mM HEPES, 0.1% BSA, 2 mM IBMX) and cellular density determined. They were then diluted to 400000 cells/ml and 25 μl-aliquots dispensed into the wells of 96-well plates. For measurement, 25 μl of test compound in assay buffer was added to the wells, followed by incubation for 30 minutes at room temperature. After addition of HTRF reagents diluted in lysis buffer (kit components), the plates were incubated for 1 hr, followed by measurement of the fluorescence ratio at 665/616 nm. In vitro potency of agonists was quantified by determining the concentrations that caused 50% activation of maximal response (EC50).
Potencies of peptidic compounds at the GLP-1, glucagon and GIP receptors were determined by exposing cells expressing human glucagon receptor (hGlucagon R), human GIP receptor (hGIP-R) or human GLP-1 receptor (hGLP-1 R) to the listed compounds at increasing concentrations and measuring the formed cAMP as described in Methods.

CCCCCCCCCCCCCCCC(=O)N[C@@H](CCC(=O)N[C@@H](CCC(=O)NCCCC[C@H](NC(=O)[C@H](CC(C)C)NC(=O)[C@H](CCCCN)NC(=O)[C@H](CO)NC(=O)[C@H](CC(C)C)NC(=O)[C@H](CC(=O)O)NC(=O)[C@H](CO)NC(=O)[C@@H](NC(=O)[C@H](Cc1ccccc1)NC(=O)[C@@H](NC(=O)CNC(=O)[C@H](Cc1c[nH]cn1)NC(=O)C(C)(C)NC(=O)[C@@H](N)Cc1c[nH]cn1)[C@@H](C)O)[C@@H](C)O)C(=O)N[C@@H](CCC(=O)O)C(=O)N[C@@H](CCC(=O)O)C(=O)N[C@@H](CCC(N)=O)C(=O)N[C@@H](CCCNC(=N)N)C(=O)N[C@@H](CCC(N)=O)C(=O)NC(C)(C)C(=O)N[C@@H](CCC(=O)O)C(=O)N[C@@H](Cc1ccccc1)C(=O)N[C@H](C(=O)N[C@@H](CCC(=O)O)C(=O)N[C@@H](Cc1c[nH]c2ccccc12)C(=O)N[C@@H](CC(C)C)C(=O)N[C@@H](CCCCN)C(=O)N[C@@H](C)C(=O)N[C@H](C)C(=O)NCC(=O)N1CCC[C@H]1C(=O)N1CCC[C@H]1C(=O)N[C@@H](CO)C(=O)NC(C)(C)C(=O)N[C@@H](CCCCN)C(=O)N1CCC[C@H]1C(=O)N1CCC[C@H]1C(=O)N1CCC[C@H]1C(=O)N[C@@H](CCCCN)C(N)=O)[C@@H](C)CC)C(=O)O)C(=O)O [SEQ ID NO: 11, H-Aib-H-G-T-F-T-S-D-L-S-K-L-K[gGlu-gGlu-Palm]-E-E-Q-R-Q-Aib-E-F-I-E-W-L-K-A-dAla-G-P-P-S-Aib-K-P-P-P-K-NH2] (H-H[Aib]HGTFTSDLSKLK([γGlu-γGlu-Palmitoyl])EEQRQ[Aib]EFIEWLKA[dA]GPPS[Aib]KPPPK-NH2)
reduction of atherosclerotic plaques relative to vehicle control ([1]; 4 months (16 weeks) s.c. minipump): 73% | LDL-cholesterol ([1]; 16 weeks): marked reduction | EC50 [2]: 1.5 pM
